From patent US8124135B2, “Compositions and methods for reduction of LDL oxidation” (VDF FutureCeuticals, Inc., priority 2005, dated 2012) come the findings set out here.

This experiment concerns Cu-induced LDL oxidation in human serum. As to the kind of experiment: Cu-induced LDL oxidation in human serum ex vivo (fluorescence). Particulars: after 2 hrs of serum exposure to copper ions.

Each structure is given as a SMILES string.

Protocol: Total amounts of cholesterol, HDL, LDL, triglycerides were measured using Cholestech System. SPG in powder form was provided by VDF FutureCeuticals, Inc. and dissolved in water at various ad indicated concentrations. Copper chloride was from Sigma. Black transparent-bottom 96-well plates were from Nalgene Nunc International. Oxidation of LDL was measured using fluorescence methods as described elsewhere (supra). Cu-induced LDL oxidation was performed in PBS (100 ul/well) with 4 ul of human sera, 2 ul of copper chloride (concentration 4 mM) and 0.5 ul of H2O2 (concentration 88.2 nM) resulting in 8-uM concentration of copper ions and 44 μM of hydrogen peroxide, respectively. Formation of Cu-induced oxLDL was measured directly in human serum using a 96-well plate set up and Gemini Fluorescent plate reader (Molecular Devices). The fluorescence signal at 360/430 and 360/470 was measured at time 0, 2 and 16 hours. oxLDL fluorescence values compared to concentration 0 on each graph show how much fluorescent signal for oxidized LDL increased between time 0 and 2 or 16 hrs, respectively, while the value at concentration 0 represents the max increase of oxLDL generation under the experimental conditions.

On to `O=C1O[C@H]([C@@H](O)CO)C(O)=C1O` [ascorbic acid], for which the “IC50 of Cu-induced LDL oxidation in serum” value is 69 µg/mL.
